Assay results from ChEMBL document CHEMBL3407349, “The discovery of Polo-like kinase 4 inhibitors: identification of (1R,2S).2-(3-((E).4-(((cis).2,6-dimethylmorpholino)methyl)styryl). 1H.indazol-6-yl)-5'-methoxyspiro[cyclopropane-1,3'-indolin]-2'-one (CFI-400945) as a potent, orally active antitumor agent” (J Med Chem, 2015).
pIC50: −log10 of the molar value.

What was measured:
[1] = AUC(infinity) in beagle dog at 5 mg/kg, po; format: ADME, organism-based, Canis lupus familiaris; design: time infinity, dose 5 mg/kg, route oral; conditions: plasma
[2] = AUC(infinity) in Sprague-Dawley rat at 1 mg/kg, iv; format: ADME, organism-based; design: time infinity, dose 1 mg/kg, route intravenous; conditions: plasma
Canis familiaris = test: Clearance in beagle dog at 1 mg/kg, iv; format: ADME, organism-based, Canis lupus familiaris; design: dose 1 mg/kg, route intravenous; conditions: in vivo
Cytochrome P450 3A4 [3] = target: T1, Cytochrome P450 3A4 (Homo sapiens, UniProt P08684); test: Inhibition of CYP3A4 (unknown origin) using BFC as substrate by fluorescence assay
T1 sequence (P08684 whole entry): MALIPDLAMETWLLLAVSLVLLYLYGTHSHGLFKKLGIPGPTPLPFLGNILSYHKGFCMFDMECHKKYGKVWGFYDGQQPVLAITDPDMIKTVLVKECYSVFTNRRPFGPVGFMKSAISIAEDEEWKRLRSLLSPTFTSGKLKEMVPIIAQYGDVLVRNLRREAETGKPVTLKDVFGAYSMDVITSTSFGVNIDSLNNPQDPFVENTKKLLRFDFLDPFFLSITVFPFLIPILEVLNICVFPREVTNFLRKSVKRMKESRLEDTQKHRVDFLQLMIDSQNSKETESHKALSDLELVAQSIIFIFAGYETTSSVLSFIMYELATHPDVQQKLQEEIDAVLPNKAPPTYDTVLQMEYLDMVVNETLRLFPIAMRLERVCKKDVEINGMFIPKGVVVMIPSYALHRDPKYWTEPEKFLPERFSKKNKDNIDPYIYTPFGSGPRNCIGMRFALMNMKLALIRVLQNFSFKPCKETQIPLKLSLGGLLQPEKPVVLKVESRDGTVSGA

[4] = Oral bioavailability in beagle dog at 5 mg/kg; format: ADME, organism-based, Canis lupus familiaris; conditions: in vivo
Cytochrome P450 2C19 = Cytochrome P450 2C19 (Homo sapiens, UniProt P33261); test: Inhibition of CYP2C19 (unknown origin) by fluorescence assay
Chain of Cytochrome P450 2C19 (P33261 whole entry): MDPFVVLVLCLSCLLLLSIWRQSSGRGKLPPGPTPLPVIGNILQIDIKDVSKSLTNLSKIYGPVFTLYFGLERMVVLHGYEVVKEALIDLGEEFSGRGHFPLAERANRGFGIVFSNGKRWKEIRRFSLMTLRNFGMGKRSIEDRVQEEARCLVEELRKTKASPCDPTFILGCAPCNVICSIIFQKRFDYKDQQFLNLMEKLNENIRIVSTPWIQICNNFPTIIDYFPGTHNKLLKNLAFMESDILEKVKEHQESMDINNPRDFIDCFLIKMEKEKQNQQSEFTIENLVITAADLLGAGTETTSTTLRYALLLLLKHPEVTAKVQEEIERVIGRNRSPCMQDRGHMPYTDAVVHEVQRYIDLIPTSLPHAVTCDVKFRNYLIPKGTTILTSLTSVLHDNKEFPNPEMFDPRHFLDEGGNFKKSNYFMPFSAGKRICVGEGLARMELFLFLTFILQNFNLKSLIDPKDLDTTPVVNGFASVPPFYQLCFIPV

[5] = Half life in human liver microsomes
[6] = Half life in mouse liver microsomes
MDA-MB-468 = test: Growth inhibition of human MDA-MB-468 cells after 5 days by SRB assay; format: functional
Cytochrome P450 2D6 = Cytochrome P450 2D6 (Homo sapiens, UniProt P10635); test: Inhibition of CYP2D6 (unknown origin) by fluorescence assay; format: ADME
Chain of Cytochrome P450 2D6 (P10635 whole entry): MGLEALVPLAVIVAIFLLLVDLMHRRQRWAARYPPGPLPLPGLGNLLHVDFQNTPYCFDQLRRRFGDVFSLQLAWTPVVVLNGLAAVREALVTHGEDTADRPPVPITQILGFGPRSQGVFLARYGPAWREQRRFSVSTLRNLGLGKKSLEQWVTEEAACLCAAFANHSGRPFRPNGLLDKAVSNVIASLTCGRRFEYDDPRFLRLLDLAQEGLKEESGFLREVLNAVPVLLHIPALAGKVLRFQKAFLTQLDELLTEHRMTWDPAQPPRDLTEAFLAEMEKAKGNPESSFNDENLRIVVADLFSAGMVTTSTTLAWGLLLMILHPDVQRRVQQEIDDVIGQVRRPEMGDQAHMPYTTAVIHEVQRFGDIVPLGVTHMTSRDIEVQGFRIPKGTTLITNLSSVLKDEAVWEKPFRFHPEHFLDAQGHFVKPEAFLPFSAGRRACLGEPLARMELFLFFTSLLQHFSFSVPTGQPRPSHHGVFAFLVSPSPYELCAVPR

[7] = Cmax in athymic CD1 nude mouse at 25 mg/kg, po by LC/MS/MS analysis; format: ADME, organism-based; design: dose 25 mg/kg, route oral; conditions: in vivo
Cytochrome P450 3A4 [8] = target: T1, Cytochrome P450 3A4; test: Inhibition of CYP3A4 (unknown origin) using DBF as substrate by fluorescence assay
HCC1954 = test: Growth inhibition of human HCC1954 cells after 5 days by SRB assay; format: functional
[9] = AUC in athymic CD1 nude mouse at 25 mg/kg, po by LC/MS/MS analysis; format: ADME, organism-based; design: dose 25 mg/kg, route oral; conditions: plasma
Cytochrome P450 2C9 = Cytochrome P450 2C9 (Homo sapiens, UniProt P11712); test: Inhibition of CYP2C9 (unknown origin) by fluorescence assay
Chain of Cytochrome P450 2C9 (P11712 whole entry): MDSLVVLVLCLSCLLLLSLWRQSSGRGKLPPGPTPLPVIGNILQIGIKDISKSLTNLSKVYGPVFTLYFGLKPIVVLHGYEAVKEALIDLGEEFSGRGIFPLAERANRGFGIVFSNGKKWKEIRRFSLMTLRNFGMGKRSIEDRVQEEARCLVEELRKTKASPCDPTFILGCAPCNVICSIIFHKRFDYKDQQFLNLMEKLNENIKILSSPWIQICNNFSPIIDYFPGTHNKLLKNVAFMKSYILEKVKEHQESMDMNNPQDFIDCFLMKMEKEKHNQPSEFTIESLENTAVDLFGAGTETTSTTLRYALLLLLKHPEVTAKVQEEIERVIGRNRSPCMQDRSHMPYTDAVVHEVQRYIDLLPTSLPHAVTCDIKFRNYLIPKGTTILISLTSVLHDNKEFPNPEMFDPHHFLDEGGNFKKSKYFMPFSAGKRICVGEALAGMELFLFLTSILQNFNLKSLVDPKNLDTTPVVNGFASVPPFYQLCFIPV

[10] = Oral bioavailability in Sprague-Dawley rat at 5 mg/kg; format: ADME, organism-based; conditions: in vivo
[11] = Half life in Sprague-Dawley rat at 1 mg/kg, iv; format: ADME, organism-based; design: dose 1 mg/kg, route intravenous; conditions: in vivo
Rattus norvegicus = test: Clearance in Sprague-Dawley rat at 1 mg/kg, iv; format: ADME, organism-based; design: dose 1 mg/kg, route intravenous; conditions: in vivo
[12] = AUC(infinity) in Sprague-Dawley rat at 5 mg/kg, po; format: ADME, organism-based; design: dose 5 mg/kg, route oral, time infinity; conditions: plasma
MCF7 = test: Growth inhibition of human MCF7 cells after 5 days by SRB assay; format: functional
[13] = Half life in rat liver microsomes
Cytochrome P450 1A2 = target: T2, Cytochrome P450 1A2 (Homo sapiens, UniProt P05177); test: Inhibition of CYP1A2 (unknown origin) by fluorescence assay; format: ADME
T2 sequence (P05177 whole entry): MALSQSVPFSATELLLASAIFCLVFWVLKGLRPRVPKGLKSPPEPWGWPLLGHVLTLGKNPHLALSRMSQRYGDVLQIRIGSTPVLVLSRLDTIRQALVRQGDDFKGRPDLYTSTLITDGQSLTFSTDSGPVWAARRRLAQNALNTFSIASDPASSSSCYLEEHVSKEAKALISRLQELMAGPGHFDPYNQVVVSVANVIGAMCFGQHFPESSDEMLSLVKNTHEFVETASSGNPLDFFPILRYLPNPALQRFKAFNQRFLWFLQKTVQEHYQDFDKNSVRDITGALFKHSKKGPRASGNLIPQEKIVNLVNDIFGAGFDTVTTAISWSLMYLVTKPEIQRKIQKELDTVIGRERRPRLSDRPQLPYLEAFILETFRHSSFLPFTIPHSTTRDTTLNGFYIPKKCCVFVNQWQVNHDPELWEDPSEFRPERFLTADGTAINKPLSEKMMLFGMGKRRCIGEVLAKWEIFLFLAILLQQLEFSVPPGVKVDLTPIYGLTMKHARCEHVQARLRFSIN

[14] = Half life in dog liver microsomes
[15] = Half life in beagle dog at 1 mg/kg, iv; format: ADME, organism-based, Canis lupus familiaris; design: dose 1 mg/kg, route intravenous; conditions: in vivo
[16] = Growth inhibition of human HMEC cells after 5 days by SRB assay; format: cell-based; conditions: HMEC cells
MDA-MB-231 = test: Growth inhibition of human MDA-MB-231 cells after 5 days by SRB assay; format: functional
[17] = AUC(infinity) in beagle dog at 1 mg/kg, iv; format: ADME, organism-based, Canis lupus familiaris; design: time infinity, dose 1 mg/kg, route intravenous; conditions: plasma
[18] = target: T3, Serine/threonine-protein kinase PLK4 (Homo sapiens, UniProt O00444); test: Inhibition of PLK4 (unknown origin) by ELISA
T3 sequence (O00444 whole entry): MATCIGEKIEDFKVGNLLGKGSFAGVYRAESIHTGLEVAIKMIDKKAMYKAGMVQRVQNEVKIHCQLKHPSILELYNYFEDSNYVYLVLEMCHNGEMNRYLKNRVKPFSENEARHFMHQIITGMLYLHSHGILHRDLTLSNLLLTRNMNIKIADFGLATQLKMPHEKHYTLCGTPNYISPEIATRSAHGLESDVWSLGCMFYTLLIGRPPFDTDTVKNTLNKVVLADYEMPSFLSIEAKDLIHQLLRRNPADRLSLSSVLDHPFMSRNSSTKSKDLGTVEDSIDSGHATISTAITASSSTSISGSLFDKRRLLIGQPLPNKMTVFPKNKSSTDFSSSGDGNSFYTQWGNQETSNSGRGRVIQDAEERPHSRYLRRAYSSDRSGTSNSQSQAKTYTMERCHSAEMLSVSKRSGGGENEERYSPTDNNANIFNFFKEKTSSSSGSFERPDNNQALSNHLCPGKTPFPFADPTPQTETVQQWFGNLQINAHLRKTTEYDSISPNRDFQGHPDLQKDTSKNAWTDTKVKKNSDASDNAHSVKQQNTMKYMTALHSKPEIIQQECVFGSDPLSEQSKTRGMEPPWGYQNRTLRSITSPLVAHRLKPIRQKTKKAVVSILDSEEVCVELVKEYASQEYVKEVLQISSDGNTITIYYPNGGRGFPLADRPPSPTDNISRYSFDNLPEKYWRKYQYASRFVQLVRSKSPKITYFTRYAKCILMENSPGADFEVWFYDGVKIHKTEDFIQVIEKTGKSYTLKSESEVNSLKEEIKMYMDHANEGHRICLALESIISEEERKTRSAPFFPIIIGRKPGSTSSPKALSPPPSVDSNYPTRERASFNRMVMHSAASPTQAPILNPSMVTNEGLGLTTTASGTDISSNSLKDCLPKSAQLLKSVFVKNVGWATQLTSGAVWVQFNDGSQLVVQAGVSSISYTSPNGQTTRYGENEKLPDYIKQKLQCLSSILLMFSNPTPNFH

[19] = Homo sapiens, MDA-MB-468, 120 h
[20] = Homo sapiens, MDA-MB-231, 120 h

| SMILES | AUC(0-inf) [1] [ng·h/mL] | AUC(0-inf) [2] [ng·h/mL] | clearance (Canis familiaris) [mL/min/kg] | pIC50 (Cytochrome P450 3A4 [3]) | pIC50 (Cytochrome P450 2C19) | half-life ([5]; liver microsomes) [min] | half-life ([6]; liver microsomes) [min] | GI50 (MDA-MB-468; [19]) [nM] | inhibition (INH) (Cytochrome P450 2D6) | Cmax [7] [ng/mL] | pIC50 (Cytochrome P450 3A4 [8]) | GI50 (HCC1954; Homo sapiens, HCC1954, 120 h) [nM] | AUC [9] [ng·h/mL] | pIC50 (Cytochrome P450 2C9) | GI50 (MCF7; Homo sapiens, MCF7, 120 h) [nM] | half-life ([13]; liver microsomes) [min] | inhibition (INH) (Cytochrome P450 1A2) | half-life ([14]; liver microsomes) [min] | GI50 at 120 h [16] [nM] | GI50 (MDA-MB-231; [20]) [nM] | further results |
| --- | --- | --- | --- | --- | --- | --- | --- | --- | --- | --- | --- | --- | --- | --- | --- | --- | --- | --- | --- | --- | --- |
| O=C1Nc2ccccc2[C@]12C[C@H]2c1ccc2c(/C=C/c3ccc(CN4CCOCC4)cc3)n[nH]c2c1 | 250 | 312 | 33.3 | 5.20 | 6.10 | 45 | 15 | 4.2 | Not Active | 3500 | 5.57 | < 1 | 10000 | 6.15 | 800 | 7.3 | Not Active | 4.7 | 50000 | 5000 | bioavailability [4]: 9.7%; bioavailability [10]: 31%; half-life [11]: 84 min; clearance (Rattus norvegicus): 53.3 mL/min/kg; AUC(0-inf) [12]: 478 ng·h/mL; half-life [15]: 192 min; AUC(0-inf) [17]: 515 ng·h/mL |
| COc1ccc2c(c1)[C@]1(C[C@H]1c1ccc3c(/C=C/c4ccc(CN5CCOCC5)cc4)n[nH]c3c1)C(=O)N2 | 1420 | 250 | 41.7 | 5.62 | 5.92 | 41 | 12 | – | Not Active | 3500 | 5.19 | – | 9500 | 6.10 | – | 8.3 | Not Active | 9.4 | > 50000 | – | bioavailability [4]: 71%; GI50 (MDA-MB-468): < 0.1 nM; GI50 (HCC1954): 250 nM; bioavailability [10]: 22%; half-life [11]: 66 min; clearance (Rattus norvegicus): 66.7 mL/min/kg; AUC(0-inf) [12]: 272 ng·h/mL; GI50 (MCF7): 0.1 nM; half-life [15]: 52.2 min; GI50 (MDA-MB-231): < 1 nM; AUC(0-inf) [17]: 402 ng·h/mL |
| Cc1ccc2c(c1)[C@]1(C[C@H]1c1ccc3c(/C=C/c4ccc(CN5CCOCC5)cc4)n[nH]c3c1)C(=O)N2 | 1140 | 285 | 23.3 | – | 5.92 | 56 | 13 | 13 | Not Active | 2100 | – | < 10 | 5500 | 6.00 | < 10 | 9 | Not Active | 9.5 | 9300 | 22000 | bioavailability [4]: 29%; bioavailability [10]: 28%; half-life [11]: 96 min; clearance (Rattus norvegicus): 58.3 mL/min/kg; AUC(0-inf) [12]: 410 ng·h/mL; half-life [15]: 420 min; AUC(0-inf) [17]: 795 ng·h/mL |
| COc1ccc2c(c1)[C@]1(C[C@H]1c1ccc3c(/C=C/c4ccc(CN5C[C@@H](C)O[C@@H](C)C5)cc4)n[nH]c3c1)C(=O)N2C | – | – | – | 5.00 | 6.12 | – | – | 29 | Not Active | 3400 | < 6.00 | 15 | 6800 | 6.36 | 21 | – | Not Active | – | > 30000 | 50000 | pIC50 [18]: 8.24; half-life ([5]; microsomes): > 60 min; half-life ([6]; microsomes): 10 min; half-life ([13]; microsomes): 18 min; half-life ([14]; microsomes): > 60 min |
| COc1ccc2c(c1)[C@]1(C[C@H]1c1ccc3c(/C=C/c4ccc([C@H](C)N5CCOCC5)cc4)n[nH]c3c1)C(=O)N2C | – | – | – | 6.35 | 6.05 | – | – | 10 | Not Active | 3300 | 4.96 | 10 | 16000 | 6.36 | 50 | – | Not Active | – | 9600 | 1000 | pIC50 [18]: 8.82; half-life ([5]; microsomes): 53 min; half-life ([6]; microsomes): 7.2 min; half-life ([13]; microsomes): 10 min; half-life ([14]; microsomes): 6.8 min |
| CC(C)N1CCC(Oc2ccc(/C=C/c3n[nH]c4cc([C@@H]5C[C@@]56C(=O)Nc5ccccc56)ccc34)cc2)CC1 | – | – | – | < 6.00 | 5.72 | > 60 | 30 | 5 | Not Active | 510 | 5.80 | 7 | 1400 | 5.62 | 67 | > 60 | Not Active | > 60 | 4100 | 1600 | pIC50 [18]: 8.82 |
